Measurements as given in the supplement of paper PMC10307832.

Assays:
Experiment in all cases: relative viability (nuclei count vs DMSO), 5 days (fraction); higher = more cells survive
[1] = compound: Cc1ccc(C(=O)Nc2ccc(CN3CCN(C)CC3)c(C(F)(F)F)c2)cc1C#Cc1cnc2cccnn12 [Ponatinib] + CC(C)C[C@H](NC(=O)[C@H](Cc1ccccc1)NC(=O)c1cnccn1)B(O)O [Bortezomib] (partner 0.002 µM)
How it was run: (§1)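 For relative viability, nuclei counts in treated wells were divided by those in vehicle wells. Lung cancer cell lines had been pin-tool dosed in 1536-well plates the day after seeding and cultured for 5 days, then fixed and stained in one step (final 0.05% Triton X-100, 1% formaldehyde, 1 ug/ml Hoechst) and imaged at 4×. Doses were one drug alone or a fixed anchor-drug dose plus five library-drug doses (not always all listed) in √10 steps, and values are duplicate-plate medians.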

[2] = compound: Cc1ccc(C(=O)Nc2ccc(CN3CCN(C)CC3)c(C(F)(F)F)c2)cc1C#Cc1cnc2cccnn12 [Ponatinib] + O=C(c1cc(Cc2n[nH]c(=O)c3ccccc23)ccc1F)N1CCN(C(=O)C2CC2)CC1 [Olaparib] (partner 8 µM)
How it was run: as §1

[3] = compound: Cc1ccc(Nc2nccc(N(C)c3ccc4c(C)n(C)nc4c3)n2)cc1S(N)(=O)=O [Pazopanib] + Cc1nc(Nc2ncc(C(=O)Nc3c(C)cccc3Cl)s2)cc(N2CCN(CCO)CC2)n1 [Dasatinib] (partner 0.075 µM)
How it was run: as §1

[4] = compound: Cc1ccc(C(=O)Nc2ccc(CN3CCN(C)CC3)c(C(F)(F)F)c2)cc1C#Cc1cnc2cccnn12 [Ponatinib] + CS(=O)(=O)N1CCN(Cc2cc3nc(-c4cccc5[nH]ncc45)nc(N4CCOCC4)c3s2)CC1 [Pictilisib] (partner 1 µM)
How it was run: as §1

Cell Line	relative viability ([1]; first compound 0.002 µM)	relative viability ([1]; first compound 0.006325 µM)	relative viability ([1]; first compound 0.06325 µM)	relative viability ([1]; first compound 0.2 µM)	relative viability ([2]; first compound 0.002 µM)	relative viability ([2]; first compound 0.006325 µM)	relative viability ([2]; first compound 0.06325 µM)	relative viability ([2]; first compound 0.2 µM)	relative viability ([3]; first compound 0.01 µM)	relative viability ([3]; first compound 0.03162 µM)	relative viability ([3]; first compound 0.1 µM)	relative viability ([3]; first compound 0.3162 µM)	relative viability ([3]; first compound 1 µM)	relative viability ([4]; first compound 0.002 µM)	relative viability ([4]; first compound 0.006325 µM)	relative viability ([4]; first compound 0.06325 µM)	relative viability ([4]; first compound 0.2 µM)
201T	1.06	1.11	1.13	1.08	0.833	0.853	0.878	0.806	0.526	0.424	0.568	0.545	0.666	0.649	0.685	0.801	0.725
A549					0.299	0.384	0.394	0.384						0.527	0.645	0.608	0.401
A-427	0.889	0.976	1.02	0.905	0.707	0.835	0.842	0.66	0.652	0.72	0.614	0.694	0.701	0.691	0.756	0.529	0.531
ABC-1	0.347	0.286	0.299	0.283	0.893	0.776	0.776	0.693	0.481	0.635		0.551	0.637	0.826	0.78	0.884	0.658
BEN	0.643	0.843	0.85	0.672	1.06	1.18	1.13	0.92		0.343	0.267	0.318	0.38	0.544	0.62	0.601	0.462
CAL-12T	0.634	0.9	1.39	1.09	0.735	0.663	0.822	0.683	0.308	0.412	0.312	0.458	0.462	0.425	0.464	0.515	0.432
COR-L23	0.862	0.875	0.818	0.8	0.277	0.349	0.335	0.303	0.512	0.503	0.553	0.449	0.56	0.768	0.753	1.04	0.703
COR-L 105	0.819	0.787	1.01	0.999	0.711	0.709	0.723	0.747	0.351	0.296	0.327	0.453	0.406	0.424	0.379	0.443	0.567
Calu-6	1.01	1.11	0.953	0.856	0.541	0.556	0.497	0.493						0.92	0.87	0.928	0.724
ChaGo-K-1	0.786	1.01	1.14	0.968	0.438	0.486	0.41	0.436	0.554	0.622	0.591	0.515	0.7	0.59	0.917	0.879	0.644
EBC-1	0.543	0.585	0.65	0.534	0.625	0.756	0.77	0.644						0.372	0.428	0.327	0.283
EKVX	1.01	1.11	1.13	1.02	0.956	0.897	0.971	0.767	0.63	0.53	0.54	0.592	0.601	0.534	0.5	0.625	0.488
EMC-BAC-2	0.967	1.02	1.06	1.04	0.434	0.455	0.482	0.398		0.381	0.308	0.305	0.312	0.549	0.537	0.684	0.527
EPLC-272H	0.76	0.894	0.856	0.88	0.777	0.9	0.778	0.624		0.321	0.369	0.376	0.251	0.29	0.373	0.342	0.335
H3255	0.659	0.792	0.806	0.76	0.573	0.534	0.602	0.554	0.349	0.397	0.295	0.286	0.454	0.466	0.478	0.456	0.447
HARA	1.06	1.1	1.21	0.861	0.757	0.825	0.777	0.874	0.23	0.341	0.241	0.248	0.337	0.443	0.478	0.498	0.296
HCC-15	0.919	1.04	1.16	1	0.673	0.721	0.767	0.738	0.543	0.631	0.612	0.67	0.692	0.644	0.758	0.823	0.701
HCC-44	0.825	0.804	1.07	0.872	0.942	0.997	0.923	0.929						0.69	0.65	0.73	0.628
HCC-78	0.476	0.48	0.62	0.421	0.836	0.819	0.825	0.726	0.328	0.383	0.362	0.429	0.339	0.203	0.216	0.214	0.232
HCC-366	1.04	1.13	1.14	0.982	0.323	0.382	0.482	0.328	0.421	0.655	0.762	0.676	0.733	0.149	0.101	0.146	0.275
